Experimental data as given in US20250236589A1, “THERAPEUTIC PHENETHYLAMINE COMPOSITIONS AND METHODS OF USE” (Cybin IRL Limited, priority 2022, published 2025).
pEC50, pKi: −log10 of the molar value.

Columns and labels:
human alpha2B receptor = human alpha2B receptor (Homo sapiens (Human), UniProt P18089); assay: alpha2B receptor binding ([3H]rauwolscine)
Method: At 10 μM, I-1 inhibited 97% of radioligand bound to rat alpha2 receptors.

5-HT1A receptors = 5-HT1A receptors (Homo sapiens (Human), UniProt P08908); assay: 5-HT1A receptor function; assay type: cell-based
Method: I-1 was also a potent 5-HT2 agonist, but at 10 μM, it inhibited >80% radioligand binding to nine other targets (see Table 6). […] I-1 inhibited <90% of radioligand binding to the other seven off-targets.

C57BL/6J mice = assay: HTR time course after s.c. administration in C57BL/6J mice; assay type: in vivo, mouse
Method: 5-HT2 agonist activity and relative duration of action in vivo of test compounds were assessed using the HTR assay in male, adult C57BL/6J mice (Jackson Laboratories). Mice were housed in standard laboratory cages with ad libitum access to food and water, and were acclimated to the vivarium for at least one week prior to testing in a procedure room. On the day of testing, mice were acclimated to the procedure room in their home cages for ≥60 min before administration of test compounds. Mice were injected subcutaneously, placed immediately thereafter in a clear, polycarbonate box (46×20×20 cm), and HTRs were counted at 5, 10, 15, 40, 120, 160, 200, 240, 280, 320, 360, and 1440 min, using hand-held tally counters, by two trained observers who were blind to treatment.

[1] = PK profile in Wistar rats (plasma, brain, urine); assay type: in vivo, rat
Method: PK profile in Rats. To evaluate the full PK profile for I-1 in rats, plasma and brain pharmacokinetic and urinary excretion of I-1 in male Wistar rats after IV dose at 1 mg/kg and an oral (p.o.) dose at 5 mg/kg administration were determined. Plasma, brain, and urine samples were collected at specified time points after single dose administration of I-1 and quantification of I-1 in the samples was accomplished using LC-MS/MS. The pharmacokinetic parameters were determined as described above.

[2] = PK in Sprague-Dawley rats (plasma, brain, CSF); assay type: in vivo, rat
Method: In another rat PK study, plasma, brain, and cerebrospinal fluid (CSF) distribution of I-1 was evaluated in Sprague-Dawley male rats after intravenous (IV) administration at 1 mg/kg. Plasma, brain, and CSF samples were collected at specified time points up to 8 hr postdose after single dose administration of I-1. Blood samples were collected via cardiac puncture and the animals were euthanized via CO2 inhalation after blood samples were collected. The CSF samples were collected via cisterna magna puncture with the brain tissue extracted after decapitation (N=4 animals per time point). The concentrations of compound I-1 in plasma, with K2EDTA as the anticoagulant, brain tissue, and CSF were determined by LC-MS/MS (LLOQ, 0.3 ng/mL). PK parameters for plasma, CSF, and brain tissue were calculated as described above.

[3] = system: 5-HT7 (h) (subtype “a” or “b” not specified); assay: Off-target screen, radioligand displacement at 10 μM; assay type: binding, human; details: agonist radioligand
[4] = male, Wistar, rat, po, brain, p.o. 5 mg/kg
[5] = male, Wistar, rat, po, plasma, p.o. 5 mg/kg
[6] = male, Wistar, rat, brain, IV 1 mg/kg
[7] = male, Wistar, rat, plasma, IV 1 mg/kg
[8] = male, Sprague-Dawley, rat, CSF, IV 1 mg/kg
[9] = male, Sprague-Dawley, rat, brain, IV 1 mg/kg
[10] = male, Sprague-Dawley, rat, plasma, IV 1 mg/kg

human alpha2B receptor, sequence (P18089 whole entry): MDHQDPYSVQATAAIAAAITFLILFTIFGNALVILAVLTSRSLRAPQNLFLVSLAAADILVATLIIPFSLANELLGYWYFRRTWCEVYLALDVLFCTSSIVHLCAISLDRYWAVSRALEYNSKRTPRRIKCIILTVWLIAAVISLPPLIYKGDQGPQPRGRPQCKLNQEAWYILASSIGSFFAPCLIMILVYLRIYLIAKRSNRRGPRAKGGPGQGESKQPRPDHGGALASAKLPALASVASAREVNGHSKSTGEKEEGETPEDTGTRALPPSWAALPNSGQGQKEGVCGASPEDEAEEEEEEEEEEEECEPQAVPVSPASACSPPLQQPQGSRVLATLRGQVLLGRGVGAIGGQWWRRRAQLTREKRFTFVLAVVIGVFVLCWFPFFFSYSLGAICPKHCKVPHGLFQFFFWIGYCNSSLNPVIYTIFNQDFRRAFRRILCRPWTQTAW

With COc1cc(SC(F)(F)F)c(OC)cc1CCN [Compound I-1, 2-(2,5-dimethoxy-4-((trifluoromethyl)thio)phenyl)ethan-1-amine] the pKi (human alpha2B receptor) was 5.99, the pEC50 (5-HT1A receptors) was 7.06 and the “HTR, dose-response” value (C57BL/6J mice; 0.1, 0.3, 1, 3 mg/kg s.c.) was “robust dose-dependent HTR”. The “HTR duration versus DOI” value (C57BL/6J mice; DOI 1 mg/kg s.c.) was “persisted longer”, the “mean total amount recovered in urine” value ([1]; IV 1 mg/kg, n=2) was 718 ng and the “% F (AUCINF)” value ([1]; absolute oral bioavailability, p.o. 5 mg/kg) was 19.1%. The “Cmax, brain concentration” value ([1]; brain, IV 1 mg/kg) was 890 ng/g, the T1/2 ([1]; brain, IV 1 mg/kg) was 2.44 h and the “Cmax, brain concentration” value ([1]; brain, p.o. 5 mg/kg) was 402 ng/g. For the same compound, the T1/2 ([1]; brain, p.o. 5 mg/kg) was 4.71 h, the “total systemic clearance relative to total hepatic blood flow” value ([1]; hepatic blood flow 3.3 L/hr/kg) was “approximately 6 fold” and the head twitching observed ([1]; immediately after IV 1 mg/kg, 1.5 hr after oral 5 mg/kg) was “mild to moderate-grade head twitching”. For the same compound, the Tmax ([1]; male, Wistar, rat, brain, iv, 1 mg/kg, IV 1 mg/kg) was 0.5 h, the Tmax ([1]; male, Wistar, rat, brain, po, 5 mg/kg, p.o. 5 mg/kg) was 2 h and the Tmax ([1]; male, Wistar, rat, plasma, iv, 1 mg/kg, IV 1 mg/kg) was 0.083 h. For the same compound, the AUC(0-inf) [1, 4] was 2880 ng·h/mL, the AUC(0-t) [1, 4] was 1860 ng·h/mL and the Cmax [1, 4] was 402 ng/mL. It also gave an MRT last [1, 4] of 3.3 h, a half-life [1, 4] of 4.71 h and an AUC(0-inf) [1, 5] of 49.7 ng·h/mL. For the same compound, the AUC(0-t) [1, 5] was 40.3 ng·h/mL, the Cmax [1, 5] was 18.6 ng/mL and the MRT last [1, 5] was 2.25 h. It also gave a half-life [1, 5] of 3.53 h, a CL renal ([1]; male, Wistar, rat, urine, IV 1 mg/kg, read-out: Renal clearance (converted)) of 1.14 mL/min/kg and a dose excreted ([1]; male, Wistar, rat, urine, IV 1 mg/kg, read-out: percentage recovery in urine) of 0.07%. It also gave an AUC(0-inf) [1, 6] of 3260 ng·h/mL, an AUC(0-t) [1, 6] of 2910 ng·h/mL and a Cmax [1, 6] of 890 ng/mL. It also gave an MRT last [1, 6] of 2.54 h, a half-life [1, 6] of 2.44 h and an AUC(0-inf) [1, 7] of 50.7 ng·h/mL. It also gave an AUC(0-t) [1, 7] of 42.2 ng·h/mL, a Cmax [1, 7] of 54.1 ng/mL and an MRT last [1, 7] of 0.62 h. The clearance [1, 7] was 328 mL/min/kg, the half-life [1, 7] was 0.78 h and the C0 ([1]; male, Wistar, rat, plasma, IV 1 mg/kg, extrapolated) was 67.2 ng/mL. For the same compound, the Vd ([1]; male, Wistar, rat, plasma, IV 1 mg/kg, read-out: Vz) was 22.2 L/kg, the Cl ([1]; plasma, IV 1 mg/kg) was 328 mL/min/kg and the T1/2 ([1]; plasma, IV 1 mg/kg) was 0.78 h. For the same compound, the T1/2 ([1]; plasma, p.o. 5 mg/kg) was 3.53 h, the “volume of distribution relative to total body water” value ([1]; total body water 0.7 L/kg) was “approximately 32 fold” and the Tlast ([2]; CSF, IV 1 mg/kg) was 6 h. The “CSF concentrations as share of brain concentrations” value ([2]; IV 1 mg/kg) was 1.6%, the Tlast ([2]; brain, IV 1 mg/kg) was 8 h and the “total systemic clearance relative to total hepatic blood flow” value ([2]; hepatic blood flow 3.31 L/hr/kg) was “approximately 1.4 fold”. It also gave a Kp ([2]; male, Sprague-Dawley, rat, CSF/plasma, IV 1 mg/kg, read-out: CSF concentrations as share of plasma) of 0.2, an AUC(0-inf) [2, 8] of 51.4 ng·h/mL and an AUC(0-t) [2, 8] of 49.9 ng·h/mL. The Cmax [2, 8] was 48.7 ng/mL, the MRT inf [2, 8] was 1.51 h and the Tmax [2, 8] was 0.083 h. It also gave a half-life [2, 8] of 1.26 h, an AUC(0-inf) [2, 9] of 3280 ng·h/mL and an AUC(0-t) [2, 9] of 3220 ng·h/mL. The Cmax [2, 9] was 1490 ng/mL, the MRT inf [2, 9] was 1.98 h and the Tmax [2, 9] was 0.25 h. For the same compound, the half-life [2, 9] was 1.34 h, the AUC(0-inf) [2, 10] was 210 ng·h/mL and the AUC(0-t) [2, 10] was 207 ng·h/mL. The C0 [2, 10] was 330 ng/mL, the Cmax [2, 10] was 250 ng/mL and the MRT inf [2, 10] was 1.19 h. For the same compound, the Tmax [2, 10] was 0.083 h, the clearance [2, 10] was 79.5 mL/min/kg and the half-life [2, 10] was 1.53 h. The Vd ([2]; male, Sprague-Dawley, rat, plasma, IV 1 mg/kg, read-out: Vss) was 5.67 L/kg, the Tlast ([2]; plasma, IV 1 mg/kg) was 8 h and the “volume of distribution relative to total body water” value ([2]; total body water 0.7 L/kg) was “approximately 8.1 fold”.
For COc1cc(CC(C)N)c(OC)cc1I (racemic) [DOI, (±)-2,5-dimethoxy-4-iodoamphetamine, reference compound], the “inhibition at 10 µM” value [3] was 58.4% inhibition at 10 μM.
